# From ChEMBL document CHEMBL1201862, “PubChem BioAssay data set” (2004)
#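 Each compound was tested at five concentrations against cells in 96-well plates for 48 hours. GI50 marks 50% less growth.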 Activity calls are given as the source filed them. Cut-off read from the data, not from the text of the source: active = GI50 up to about 1.1 µM and inactive = higher.
# Key:
# Experiment in all cases: NCI tumour cell line growth inhibition, 48 h
# HT-29 = tested on: HT-29
# RXF 393 = tested on: RXF 393
# A549 = tested on: A549
# SN12C = tested on: SN12C
# SK-MEL-28 = tested on: SK-MEL-28
# MCF7 = tested on: MCF7
# SNB-19 = tested on: SNB-19
# SF-268 = tested on: SF-268
# MDA-N = tested on: MDA-N
# SK-OV-3 = tested on: SK-OV-3
# HCT-15 = tested on: HCT-15
# OVCAR-8 = tested on: OVCAR-8
# BT-549 = tested on: BT-549
# UACC-257 = tested on: UACC-257
# SF-295 = tested on: SF-295
# A498 = tested on: A498
# U-251 = tested on: U-251
# SK-MEL-2 = tested on: SK-MEL-2
# HCT-116 = tested on: HCT-116
Structure (SMILES),GI50 (HT-29),GI50 (RXF 393),GI50 (A549),GI50 (SN12C),GI50 (SK-MEL-28),GI50 (MCF7),GI50 (SNB-19),GI50 (SF-268),GI50 (MDA-N),GI50 (SK-OV-3),GI50 (HCT-15),GI50 (OVCAR-8),GI50 (BT-549),GI50 (UACC-257),GI50 (SF-295),GI50 (A498),GI50 (U-251),GI50 (SK-MEL-2),GI50 (HCT-116)
N#CC1C(=O)Nc2sc(C(=O)c3ccc(Br)cc3)c(N)c2C12CCCCC2 (stereo unspecified),33.4 µM (inactive),7.96 µM (inactive),18.1 µM (inactive),27.9 µM (inactive),16 µM (inactive),16.5 µM (inactive),37.9 µM (inactive),22.7 µM (inactive),17 µM (inactive),46.3 µM (inactive),16 µM,39.8 µM (inactive),27.9 µM (inactive),23.6 µM (inactive),30.5 µM (inactive),20.1 µM (inactive),25.1 µM (inactive),14.2 µM (inactive),15.8 µM (inactive)
CCCCC/C(=N\c1[nH]cnc1C(N)=O)OCC,> 100 µM (inactive),> 100 µM (inactive),> 100 µM (inactive),> 100 µM (inactive),> 100 µM (inactive),> 100 µM (inactive),> 100 µM (inactive),> 100 µM (inactive),> 100 µM (inactive),> 100 µM (inactive),> 100 µM,> 100 µM (inactive),> 100 µM (inactive),> 100 µM (inactive),> 100 µM (inactive),> 100 µM (inactive),> 100 µM (inactive),> 100 µM (inactive),> 100 µM (inactive)
CC1=CC(=O)/C(=C/NC(=S)Nc2ccc(S(N)(=O)=O)cc2)C(=O)O1,> 100 µM (inactive),83.6 µM (inactive),> 100 µM (inactive),> 100 µM (inactive),> 100 µM (inactive),> 100 µM (inactive),> 100 µM (inactive),> 100 µM (inactive),> 100 µM (inactive),> 100 µM (inactive),> 100 µM,> 100 µM (inactive),> 100 µM (inactive),> 100 µM (inactive),> 100 µM (inactive),> 100 µM (inactive),> 100 µM (inactive),> 100 µM (inactive),> 100 µM (inactive)
Oc1cccc2cc(Br)cnc12,23.1 µM (inactive),16.7 µM (inactive),5.97 µM (inactive),14.9 µM (inactive),49.2 µM (inactive),3.18 µM (inactive),> 39.4 µM (inactive),2.33 µM (inactive),21.7 µM (inactive),41.1 µM (inactive),4.43 µM,3.45 µM (inactive),28.1 µM (inactive),4.78 µM (inactive),6.15 µM (inactive),27.5 µM (inactive),8.32 µM (inactive),24.5 µM (inactive),4.97 µM (inactive)
N#Cc1c(NC(=S)Nc2ccc(Cl)cc2)sc2c1CCN(N1CCc3c(sc(NC(=S)Nc4ccc(Cl)cc4)c3C#N)C1)C2,13.6 µM (inactive),18.3 µM (inactive),28.5 µM (inactive),39.3 µM (inactive),24 µM (inactive),37.2 µM (inactive),64 µM (inactive),38.9 µM (inactive),28.7 µM (inactive),> 100 µM (inactive),24 µM,29.3 µM (inactive),36.6 µM (inactive),29.7 µM (inactive),16.1 µM (inactive),15.7 µM (inactive),29.2 µM (inactive),20.3 µM (inactive),21.6 µM (inactive)
Clc1ccc(-c2cc3nc4ccccc4nc3o2)cc1,> 100 µM (inactive),32.5 µM (inactive),> 100 µM (inactive),,> 100 µM (inactive),64.4 µM (inactive),31.6 µM (inactive),63.8 µM (inactive),> 100 µM (inactive),59.4 µM (inactive),> 100 µM,32.6 µM (inactive),35 µM (inactive),34.8 µM (inactive),58.7 µM (inactive),> 100 µM (inactive),29.9 µM (inactive),> 100 µM (inactive),> 100 µM (inactive)
C(=C/c1nnnn1-c1ccccc1)/Nc1ccccc1,28.2 µM (inactive),53 µM (inactive),52.4 µM (inactive),30.8 µM (inactive),78.7 µM (inactive),19.3 µM (inactive),26.7 µM (inactive),31.7 µM (inactive),22 µM (inactive),36.2 µM (inactive),21.5 µM,29.5 µM (inactive),17.4 µM (inactive),36.5 µM (inactive),26.2 µM (inactive),> 100 µM (inactive),27.9 µM (inactive),2.64 µM (inactive),31.9 µM (inactive)
c1cnc(N2CCN(Cc3c[nH]c4ccccc34)CC2)nc1,56.6 µM (inactive),41.9 µM (inactive),80.4 µM (inactive),42.1 µM (inactive),> 100 µM (inactive),16.9 µM (inactive),> 100 µM (inactive),74.5 µM (inactive),25.1 µM (inactive),> 100 µM (inactive),72.9 µM,95.9 µM (inactive),42.1 µM (inactive),28.8 µM (inactive),38.3 µM (inactive),28.7 µM (inactive),37.1 µM (inactive),13.3 µM (inactive),26.2 µM (inactive)
C[C@@H](CC(=O)OCc1ccccc1)OC1OC(COC(=O)C(C)(C)C)C(OC(=O)C(C)(C)C)C(OC(=O)C(C)(C)C)C1OC(=O)C(C)(C)C (stereo partly specified),> 100 µM (inactive),> 100 µM (inactive),> 100 µM (inactive),> 100 µM (inactive),> 100 µM (inactive),> 100 µM (inactive),> 100 µM (inactive),> 100 µM (inactive),36 µM (inactive),> 100 µM (inactive),> 100 µM,> 100 µM (inactive),> 100 µM (inactive),> 100 µM (inactive),> 100 µM (inactive),> 100 µM (inactive),> 100 µM (inactive),> 100 µM (inactive),> 100 µM (inactive)
Fc1ccc(C(OCCN2CCC3CCC(C2)N3C/C=C/c2cccnc2)c2ccc(F)cc2)cc1 (stereo unspecified),3.44 µM (inactive),5.28 µM (inactive),11.8 µM (inactive),13.1 µM (inactive),2.24 µM (inactive),11 µM (inactive),15.2 µM (inactive),12.8 µM (inactive),11.6 µM (inactive),14.7 µM (inactive),10 µM,13 µM (inactive),13.6 µM (inactive),3.78 µM (inactive),9.23 µM (inactive),14.3 µM (inactive),11.9 µM (inactive),13.3 µM (inactive),5.93 µM (inactive)
Cc1ccc(N2C(=O)CC(=O)N(NC(=O)C(C)Oc3ccccc3C)C2=S)cc1 (stereo unspecified),> 100 µM (inactive),> 100 µM (inactive),> 100 µM (inactive),> 100 µM (inactive),> 100 µM (inactive),> 100 µM (inactive),> 100 µM (inactive),> 100 µM (inactive),94.8 µM (inactive),> 100 µM (inactive),> 100 µM,> 100 µM (inactive),> 100 µM (inactive),> 100 µM (inactive),> 100 µM (inactive),> 100 µM (inactive),> 100 µM (inactive),> 100 µM (inactive),> 100 µM (inactive)
Nc1nc(Nc2ccccc2)sc1C(=O)c1cccs1,5.32 µM (inactive),5.93 µM (inactive),14.2 µM (inactive),16 µM (inactive),25.4 µM (inactive),8.13 µM (inactive),16.6 µM (inactive),18.2 µM (inactive),17.1 µM (inactive),29.4 µM (inactive),10.8 µM,21.1 µM (inactive),15.2 µM (inactive),17.7 µM (inactive),21.8 µM (inactive),14.6 µM (inactive),15.3 µM (inactive),12.7 µM (inactive),4.06 µM (inactive)
CCN(CC)C1C(=O)NC1C#Cc1ccccc1 (stereo unspecified),48 µM (inactive),> 100 µM (inactive),,> 100 µM (inactive),> 100 µM (inactive),49.2 µM (inactive),> 100 µM (inactive),> 100 µM (inactive),57.3 µM (inactive),> 100 µM (inactive),96.6 µM,> 100 µM (inactive),61.9 µM (inactive),> 100 µM (inactive),> 100 µM (inactive),> 100 µM (inactive),> 100 µM (inactive),> 100 µM (inactive),> 100 µM (inactive)
COc1ccc(N2C(=O)C3CC4=CC(=O)C[C@H]4[C@H]32)cc1 (stereo partly specified),,82 µM (inactive),> 100 µM (inactive),29.4 µM (inactive),> 100 µM (inactive),67.6 µM (inactive),> 100 µM (inactive),> 100 µM (inactive),18.5 µM (inactive),> 100 µM (inactive),40.9 µM,49.4 µM (inactive),14.9 µM (inactive),64.9 µM (inactive),> 100 µM (inactive),> 100 µM (inactive),67.9 µM (inactive),> 100 µM (inactive),20.7 µM (inactive)
OC1(c2ccccc2)CSc2ncnn21 (stereo unspecified),> 100 µM (inactive),> 100 µM (inactive),> 100 µM (inactive),> 100 µM (inactive),,> 100 µM (inactive),> 100 µM (inactive),> 100 µM (inactive),> 100 µM (inactive),> 100 µM (inactive),> 100 µM,> 100 µM (inactive),> 100 µM (inactive),> 100 µM (inactive),> 100 µM (inactive),> 100 µM (inactive),> 100 µM (inactive),> 100 µM (inactive),> 100 µM (inactive)
